Data from US20240166690A1, “MULTI-TARGET CY[…] FOR OPIOID/NEUROPEPTIDE FF RECEPTORS, AND PREPARATION THEREFOR AND APPLICATION THEREOF” (SHANGHAI TIANCI LIFE SCIENCE DEVELOPMENT CO., LTD., priority 2021, published 2024).
Bridge positions count the residues as written; N and C are the ends. Square brackets hold non-standard residues; d marks the D form. Peptide text beside a SMILES is read from it. NMeF = CN[C@@H](Cc1ccccc1)C(=O)O; dOrn = NCCC[C@@H](N)C(=O)O

How the values were obtained:
Mu-opioid receptor = molecular target: T1, Mu-opioid receptor (Homo sapiens, UniProt P35372); assay: cAMP functional experiment, Mu-opioid receptor (forskolin-induced cAMP accumulation); type: cell-based
T1 construct: expressed in transfected cells; host or cells: HEK293
T1 sequence (P35372 whole entry): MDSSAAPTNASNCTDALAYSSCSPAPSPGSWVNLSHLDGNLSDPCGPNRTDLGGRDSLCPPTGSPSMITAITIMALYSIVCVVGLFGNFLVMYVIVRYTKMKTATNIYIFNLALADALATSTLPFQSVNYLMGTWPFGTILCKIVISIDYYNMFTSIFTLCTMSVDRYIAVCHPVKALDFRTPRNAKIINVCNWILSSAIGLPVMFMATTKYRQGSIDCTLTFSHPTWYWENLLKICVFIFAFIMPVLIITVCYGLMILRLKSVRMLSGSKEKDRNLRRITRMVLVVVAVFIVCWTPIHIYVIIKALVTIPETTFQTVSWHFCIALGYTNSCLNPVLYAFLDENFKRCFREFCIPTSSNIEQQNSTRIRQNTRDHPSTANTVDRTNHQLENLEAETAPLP
Description: (§1) The agonistic activity of the cyclopeptide molecule of the present invention against Mu-opioid receptor, Delta-opioid receptor, Kappa-opioid receptor, NPFF1 receptor and NPFF2 receptor was evaluated by detecting the regulation of the cyclopeptide molecule of the present invention on the intracellular accumulation of cyclic adenosine monophosphate (cAMP) induced by Forskolin in HEK293 cells stably expressing these five receptors. The experimental method was: the cells were seeded in 24 well plates with 120000 cells per well, and were cultured for more than 20 hours. At the beginning of the experiment, the culture medium in the culture dish was suck out, and then 500 μL of preheated serum-free medium containing 1 mM of IBMX was added, the mixture was incubated at 37° C. for 10 minutes. Then each 10 μL of the drug to be tested and 10 μM of forskolin (final concentration) were added to each well. The mixture was incubated at 37° C. for 30 minutes. After incubation, all the liquid was suck out from the culture dish, 500 μL of 0.2 N hydrochloric acid was added to each well, the mixture was incubated at room temperature for 30 minutes to promote cell lysis. After lysis was complete, NaOH was added to neutralize the hydrochloric acid solution used for lysis. Then all the liquid was suck out from the culture dish into centrifuge tubes, the liquid was centrifuged at 12000 rpm for 2 minutes. 50 μL was taken to a clean centrifuge tube, 100 μL of 60 μg/μL PKA was added, and 100 μL of TE cAMP buffer was added to the blank control group (B). Another 50 μL of 0.5 μ Ci[^3H]cAMP was added to each of the above centrifuge tubes, the mixture was quickly mixed and incubated at 4° C. for more than 2 hours. After incubation, another 100 μL of activated carbon suspension was added to each tube, the mixture was vortex agitated evenly, placed in an ice bath for 1 minute, centrifuged at 5000 rpm for 4 minutes. 200 μL of supernatant after centrifugation in each tube was suck out to a 24 well plate, with an additional 700 μL of scintillator liquid added per well, then the 24 well plate was sealed with adhesive film, placed for 3 hours, then placed on the scintillation instrument for measurement.
(§2) The inhibitory effect of cAMP was represented by the percentage (% control) of drug inhibition of intracellular cAMP accumulation induced by Forskolin, wherein % control=(cAMP content when treated with Forskolin−cAMP content when Forskolin co-treated with the test drug)/(cAMP content when treated with Forskolin−cAMP content when treated with solvent). The related % control data was represented by mean±S.E.M. The dose-effect relationship of the drug was statistically analyzed using a nonlinear regression model, and the IC50 values of the multi-target cyclopeptide molecule on inhibition of Forskolin induced intracellular cAMP accumulation were calculated using the statistical software GraphPad Prism version 5.0.

Delta-opioid receptor = molecular target: T2, Delta-opioid receptor (Homo sapiens, UniProt P41143); assay: cAMP functional experiment, Delta-opioid receptor (forskolin-induced cAMP accumulation); type: cell-based
T2 construct: expressed in transfected cells; host or cells: HEK293
T2 sequence (P41143 whole entry): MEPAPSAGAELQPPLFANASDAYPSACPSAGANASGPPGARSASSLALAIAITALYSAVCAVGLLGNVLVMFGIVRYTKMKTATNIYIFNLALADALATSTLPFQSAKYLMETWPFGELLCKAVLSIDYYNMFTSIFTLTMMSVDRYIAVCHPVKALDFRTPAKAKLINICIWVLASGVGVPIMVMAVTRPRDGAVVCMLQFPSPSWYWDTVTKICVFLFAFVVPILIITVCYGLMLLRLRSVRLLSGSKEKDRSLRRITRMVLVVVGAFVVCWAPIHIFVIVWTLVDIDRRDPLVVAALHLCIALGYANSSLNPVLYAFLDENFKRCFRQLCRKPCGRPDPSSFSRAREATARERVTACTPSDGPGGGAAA
Description: as §1, §2

NPFF1 receptor = molecular target: T3, NPFF1 receptor (Homo sapiens, UniProt Q9GZQ6); assay: cAMP functional experiment, NPFF1 receptor (forskolin-induced cAMP accumulation); type: cell-based
T3 construct: expressed in transfected cells; host or cells: HEK293
T3 sequence (Q9GZQ6 whole entry): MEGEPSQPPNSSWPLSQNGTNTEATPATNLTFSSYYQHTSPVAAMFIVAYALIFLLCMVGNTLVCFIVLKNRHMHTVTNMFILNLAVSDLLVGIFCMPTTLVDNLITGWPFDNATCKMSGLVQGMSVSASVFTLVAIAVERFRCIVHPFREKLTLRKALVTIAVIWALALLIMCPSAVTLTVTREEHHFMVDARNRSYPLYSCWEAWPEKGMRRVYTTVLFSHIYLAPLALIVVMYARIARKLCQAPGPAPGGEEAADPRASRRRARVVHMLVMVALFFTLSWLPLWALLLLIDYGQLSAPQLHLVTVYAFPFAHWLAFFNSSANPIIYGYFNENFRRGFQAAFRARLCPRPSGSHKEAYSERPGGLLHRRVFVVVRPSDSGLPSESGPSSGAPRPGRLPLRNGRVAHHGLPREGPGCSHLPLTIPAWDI
Description: as §1, §2

NPFF2 receptor = molecular target: T4, NPFF2 receptor (Homo sapiens, UniProt Q9Y5X5); assay: cAMP functional experiment, NPFF2 receptor (forskolin-induced cAMP accumulation); type: cell-based
T4 construct: expressed in transfected cells; host or cells: HEK293
T4 sequence (Q9Y5X5 whole entry): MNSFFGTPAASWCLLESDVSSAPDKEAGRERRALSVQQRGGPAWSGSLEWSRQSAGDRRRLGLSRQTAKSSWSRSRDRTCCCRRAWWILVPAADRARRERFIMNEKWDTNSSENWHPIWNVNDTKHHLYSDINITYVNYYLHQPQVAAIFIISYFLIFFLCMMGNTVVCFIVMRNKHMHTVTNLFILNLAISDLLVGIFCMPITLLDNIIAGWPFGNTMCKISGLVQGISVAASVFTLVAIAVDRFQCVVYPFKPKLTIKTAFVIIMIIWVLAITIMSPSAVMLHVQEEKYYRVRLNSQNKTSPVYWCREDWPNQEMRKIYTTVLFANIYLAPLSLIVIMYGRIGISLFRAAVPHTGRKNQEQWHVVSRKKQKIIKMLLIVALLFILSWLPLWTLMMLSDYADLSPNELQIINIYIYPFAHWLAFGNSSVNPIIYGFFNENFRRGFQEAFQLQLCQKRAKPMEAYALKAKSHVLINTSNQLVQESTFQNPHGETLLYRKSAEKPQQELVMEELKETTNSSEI
Description: as §1, §2

male mice = assay: Conditioned place preference experiment (CPP); type: in vivo; conditions: 10000 μg/kg orally
Description: Conditioned place preference experiment (CPP) was conducted in a device consisting of three organic glass boxes, wherein two large boxes (20×20×20 cm) on either side separated by a small box (5×20×20 cm) in the middle. A small door of 5×5 was at the bottom of two large boxes for mice to enter and exit, and the doors can be closed. A box on one side was white, with a rough wire mesh as the bottom and a light intensity of 50 lux. A box on other side was black, with a smooth bottom and a light intensity of 20 lux. 25±5 g male mice were selected for the experiment, the room temperature was 22±1° C. On the first day of the experiment, the mice were first screened, allowing them to shuttle freely between two boxes for 15 minutes. The time the mice stayed in one box was recorded, and mice that stayed for more than 9 minutes were removed. Mice without preference/aversion were selected. […] On the 5th day, CPP performance was measured. As on the first day, the time stay in each box was measured for the mice after administration with the duration of 15 minutes. The inter group differences between different drug treatments in the CPP experiment and the differences in the number of jumps in the naloxone withdrawal experiment was statistically analyzed using paired t-tests. *P<0.05, **P<0.01, and ***P<0.001 indicated significance of differences between the drug treatment group and the saline group.

mice = assay: Naloxone withdrawal experiment (number of jumps); type: in vivo; conditions: for number of jumps: escalating doses every 8 hours, naloxone 10 mg/kg i.p., 30 minutes, saline 5; for withdrawal symptoms versus saline: oral, low and high doses
Description: The naloxone withdrawal test is a classic experiment for evaluating drug physiological addiction. The experimental method is based on Venetia Zachariou (2003). […] High doses of compound 11 were also administered with doses of 20, 40, 60, 80, 100, 100, and 100 μg/kg, respectively. Two hours after the last administration, mice were intraperitoneally injected with 10 mg/kg of naloxone. Then the mouse was immediately placed in an opaque barrel-shaped structure with an inner diameter of 9 cm and a height of 32 cm, and the number of jumps in mice within 30 minutes was recorded. The experimental results were represented by the number of jumps in mice, which is the number of jumps±S.E.M. The difference between the compound group and saline control group was statistically analyzed using one-way ANOVA (Bonferroni test). *P<0.05, **P<0.01, and ***P<0.001 indicated significance of differences between saline and compound.

Compound | IC50 (Mu-opioid receptor) | IC50 (Delta-opioid receptor) | IC50 (NPFF1 receptor) | IC50 (NPFF2 receptor) | conditioned place preference (male mice) | number of jumps (mice; high-dose oral) | number of jumps (mice; low-dose oral) | withdrawal symptoms versus saline (mice)
CN1C(=O)CNC(=O)[C@H](NC(=O)[C@@H](N)Cc2ccc(O)cc2)CCCNC(=O)CC[C@@H](C(=O)N2CCC[C@H]2C(=O)N[C@@H](CCC(N)=O)C(=O)N[C@@H](CCCNC(=N)N)C(=O)N[C@@H](Cc2ccccc2)C(N)=O)NC(=O)[C@@H]1Cc1ccccc1 [Compound 11, Tyr-c^[2,5][D-Orn-Gly-NMe-Phe-Glu]-Pro-Gln-Arg-Phe-NH2] (H-Y[dOrn]G[NMeF]EPQRF-NH2; lactam 2-5) | 84 nM | 1560 nM | 42.9 nM | 572 nM | no phenomenon of conditioned place preference | 4 | 9 | did not show withdrawal symptoms
CN1C(=O)CNC(=O)[C@H](NC(=O)[C@@H](N)Cc2ccc(O)cc2)CCCCNC(=O)C[C@@H](C(=O)N2CCC[C@H]2C(=O)N[C@@H](CCC(N)=O)C(=O)N[C@@H](CCCNC(=N)N)C(=O)N[C@@H](Cc2ccccc2)C(N)=O)NC(=O)[C@@H]1Cc1ccccc1 [Compound 1, Tyr-c[D-Lys-Gly-NMe-Phe-Asp]-Pro-Gln-Arg-Phe-NH2] (H-Y[dK]G[NMeF]DPQRF-NH2; lactam 2-5) | 93.5 nM | 549 nM | 104 nM | 49.8 nM | no phenomenon of conditioned place preference | 1 | 1 | did not show withdrawal symptoms
